Here are results for 6 compounds from patent US7749730B2, “High throughput screening assay for the TRPM5 ion channel” (Redpoint Bio Corporation, priority 2005, dated 2010).

What all share (format): cell-based
Assay [1] has as its target T1, TRPM5 (Homo sapiens, UniProt Q9NZQ8).
T1 sequence (Q9NZQ8 1-1165): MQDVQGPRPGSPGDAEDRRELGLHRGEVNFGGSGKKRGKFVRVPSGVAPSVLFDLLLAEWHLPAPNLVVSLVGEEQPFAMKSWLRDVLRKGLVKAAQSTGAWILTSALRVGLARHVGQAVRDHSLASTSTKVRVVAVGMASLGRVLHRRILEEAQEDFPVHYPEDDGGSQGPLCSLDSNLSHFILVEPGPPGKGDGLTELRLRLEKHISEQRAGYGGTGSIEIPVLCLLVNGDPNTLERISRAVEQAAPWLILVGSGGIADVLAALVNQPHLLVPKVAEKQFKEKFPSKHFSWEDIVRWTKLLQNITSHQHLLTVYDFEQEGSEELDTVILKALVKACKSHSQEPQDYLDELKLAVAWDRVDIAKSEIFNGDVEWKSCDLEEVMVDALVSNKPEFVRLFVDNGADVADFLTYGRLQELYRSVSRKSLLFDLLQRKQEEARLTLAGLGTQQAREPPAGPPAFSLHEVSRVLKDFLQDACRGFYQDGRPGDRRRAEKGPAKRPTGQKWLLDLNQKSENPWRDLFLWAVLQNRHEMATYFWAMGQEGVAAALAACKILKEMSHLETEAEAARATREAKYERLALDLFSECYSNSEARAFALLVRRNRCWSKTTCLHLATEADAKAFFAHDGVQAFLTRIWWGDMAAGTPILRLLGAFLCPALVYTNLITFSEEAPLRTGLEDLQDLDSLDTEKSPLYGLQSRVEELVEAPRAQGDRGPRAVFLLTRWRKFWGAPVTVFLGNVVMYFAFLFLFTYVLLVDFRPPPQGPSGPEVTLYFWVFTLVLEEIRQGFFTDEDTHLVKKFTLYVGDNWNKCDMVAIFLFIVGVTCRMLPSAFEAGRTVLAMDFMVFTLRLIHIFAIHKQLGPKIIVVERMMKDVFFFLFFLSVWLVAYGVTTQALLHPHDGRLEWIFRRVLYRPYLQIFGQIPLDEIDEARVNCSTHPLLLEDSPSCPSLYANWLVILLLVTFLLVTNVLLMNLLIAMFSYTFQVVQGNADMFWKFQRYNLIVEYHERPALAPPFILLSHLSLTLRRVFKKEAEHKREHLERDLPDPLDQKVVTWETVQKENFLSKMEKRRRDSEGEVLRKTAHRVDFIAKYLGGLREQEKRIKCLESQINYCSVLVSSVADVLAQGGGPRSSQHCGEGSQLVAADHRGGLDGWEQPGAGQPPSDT
In words: Membrane potential assay in transiently TRPM5-transfected HEK 293 cells (FLEXstation). Set-up: the full length hTRPM5 was amplified by PCR using GC Melt; expressed in transfected cells; host or cells: HEK 293 (ATCC), transient transfection with Lipofectamine 2000. Conditions: for TRPM5 response to agonist (relative fluorescence): within the first 30 seconds of agonist addition, FMP dye. As to the method:
As described in greater detail below, HEK 293 cells, transiently transfected with a plasmid bearing the human TRPM5 gene, were used to develop the high throughput screening assay. Indirect measurement of the changes in Na^+ ions within the HEK 293 cells were made using a FMP dye and stimulation of the cells using calcium activating agents.
1.0×10^6 HEK 293 cells (ATCC) were plated in each well of a 6-well tissue culture dish overnight. The following day, cells were transfected with 4 μg of a pcDNA3.2 vector containing TRPM5 cDNA and 8 μl of Lipofectamine 2000 (Invitrogen), according to the manufacturer's protocol, and incubated overnight. The following day, transfected cells were trypsinized and seeded into 96-well black, clear bottom, poly-D-lysine plates (Corning) at a density of 70,000 cells/well in a 100 μl volume and incubated in a 37° C./5% CO2 incubator overnight.
Once the expression of TRPM5 was confirmed in the HEK cells, 100 μl of the Blue or Red FMP dye (Molecular Devices) was added to each well of plates seeded with the transiently transfected cells. The plate was then incubated in a 37° C./5% CO2 incubator for 1 hour. The plate was read in a FLEXStation microplate reader (Molecular Devices) with an excitation of 530 nm and an emission of 565 nm. The fluorescence was monitored for 3 minutes upon exposure of the cells to a calcium activating agent (carbachol, thrombin peptide or ATP).

Assay [2] addresses T1, TRPM5. In words: TRPM5 membrane potential dye assay (FLIPR), cells stimulated with ATP. Conditions: ATP stimulus. Also noted: the full length hTRPM5 was amplified by PCR using GC Melt; expressed in transfected cells. As to the method:
TRPM5 stably expressed in HEK cells was analyzed for its ability to respond to different concentrations of several GPCR agonists. The assay was performed on a FLIPR® using the excitation 510-545 nm and emission 565-625 nm filter sets. Assay plates containing stably expressing HEK cells were loaded with 1× Membrane Potential Assay Dye Red (Molecular Devices) for one hour in a 37° C. and 5% CO2 incubator. The plates were then removed from the incubator and equilibrated to room temperature for 15 minutes before reading on the FLIPR®. The plates were read on the FLIPR® for a total of 3 minutes. Baseline fluorescence was obtained on the FLIPR® for 10 seconds followed by addition of each agonist by the FLIPR® and read for an additional 2 minutes and 50 seconds. […] The values on the graph represent the difference in the maximum minus the minimum fluorescence upon agonist addition. Individual clones are represented by clone number, while the pool of clones represents the sum of all cells that were resistant to selection. In all cases, clone 1 gave the strongest response to all 3 agonists (ATP, carbachol, and thrombin peptide, FIGS. 5A-5C, respectively). Clone 5 and pooled clones generated a lower response in comparison to clone 1. However, both the clone 5 and pool responses were a minimum 3-fold higher than fluorescence in non-transfected cells.
Specificity of potential activating compounds may be identified using suboptimal concentrations of agents that increase intracellular calcium levels. In this type of assay, rather than using a high concentration of, for example carbachol, a reduced concentration is added to TRPM5-expressing cells with or without an additional test compound. Enhancers of TRPM5 activity are those test compounds that increase the fluorescent intensity in reduced carbachol treated cells, to the level seen in cells treated to a high dose.
A carbachol dose response curve was generated for the TRPM5 expressing cells so that the suboptimal concentration range could be determined. […]

Another assay deals with KCl response. Put plainly: KCl counterscreen (membrane potential dye, 20 mM KCl stimulus). Conditions: TRPM5-expressing cells. As to the method:
KCl activates a number of ion channels, but not TRPM5. Therefore, KCl can be used as a counterscreen to identify modulating compounds specific for TRPM5.
(§1) The ideal blocker would block TRPM5 but not other channels. The TRPM5 assay is conducted as described in Example 3, utilizing a membrane potential dye. A test compound is added, and the cells are then stimulated with ATP to trigger the channel, leading to a dye response. The process is shown schematically in FIG. 7. The KCl counterscreen is performed as described in Example 3, with identical cells, pretreated with the same compound, but the stimulus was 20 mM KCl, not ATP. KCl stimulated and unstimulated responses are used as controls. […] An additional specificity assay utilizes a Ca++ flux dye (Calcium 3 Dye, Part No. R8091) to determine whether or not the compound interferes with agonist-induced Ca++ flux response.
On the technique in general: A counterscreen serves to expose hits that act by an unwanted route or on another target.

Assay [3] concerns agonist-induced Ca++ flux response. Put plainly: Ca++ flux assay (Calcium 3 Dye). As to the method: as §1

For `C[N+](C)(C)CCOC(N)=O` [carbachol], the “TRPM5 response to agonist (relative fluorescence)” value at TRPM5 [1] is listed as “strong spike in relative fluorescence”. For the compound `C=CCOc1ccc(/C=N/NC(=O)CSCc2cccc(Br)c2)cc1OC` [compound 1], the “inhibition of the TRPM5 response” value against TRPM5 [2] was “dose responsive inhibition of the TRPM5 response”. Further, the “effect on KCl response” value in the assay on KCl response is reported as “does not alter KCl or Ca++ responses”. Also, the “effect on Ca++ flux response” value in assay [3] is given as “does not alter KCl or Ca++ responses”. Take thrombin: the fluorescence over background result on TRPM5 [1] (versus mock treated cells) was “greater than 4 fold”. Further, the “TRPM5 response to agonist (relative fluorescence)” value on TRPM5 [1] is given as “strong spike in relative fluorescence”.

`NC1C(=O)/C(=C\c2cc([N+](=O)[O-])cc([N+](=O)[O-])c2O)SC1=S` (centres unmarked) [Compound F001344,A3]: the “inhibition of the TRPM5 response” value against TRPM5 [2] was “inhibits TRPM5”. Moreover, in the assay with KCl response, the “effect on KCl response” value is listed as “inhibits TRPM5, but also the KCl responses”. As to `O=c1[nH]c(SCc2ccccc2)nc(O)c1C(c1ccccc1)c1ccccc1` [Compound F0013488,C13], the “inhibition of the TRPM5 response” value on TRPM5 [2] was “inhibits TRPM5”. Further, in assay [3], the “effect on Ca++ flux response” value is “activates the Ca++ flux response”. On to `Nc1ncnc2c1ncn2[C@@H]1O[C@H](COP(=O)(O)OP(=O)(O)OP(=O)(O)O)[C@@H](O)[C@H]1O` [ATP, adenosine triphosphate], for which the “TRPM5 response to agonist (relative fluorescence)” value on TRPM5 [1] was “strong spike in relative fluorescence”.
